Laboratory results reported in PubChem BioAssay (NCI).
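Growth conditions: 96-well plates. Treatment: test compound, 48 hours, 5 concentrations. Analysis: linear interpolation between bracketing concentrations; unreached endpoints set to highest concentration. GI50 = concentration required for 50% inhibition of growth. Definition used: TGI = concentration required for complete inhibition of growth.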

Legend:
Assay in all cases: NCI tumour cell line growth inhibition, 48 h
[1] = test system: 786-0 renal
[2] = test system: A498 renal
[3] = test system: A549 NSCLC
[4] = test system: ACHN renal
[5] = test system: BT-549 breast
[6] = test system: CAKI-1 renal
[7] = test system: CCRF-CEM leukemia
[8] = test system: COLO 205 colon
[9] = test system: DU-145 prostate
[10] = test system: HCC-2998 colon
[11] = test system: HCT-116 colon
[12] = test system: HCT-15 colon
[13] = test system: HL-60(TB) leukemia
[14] = test system: HOP-62 NSCLC
[15] = test system: HOP-92 NSCLC
[16] = test system: HS 578T breast
[17] = test system: HT29 colon
[18] = test system: K-562 leukemia
[19] = test system: KM12 colon
[20] = test system: LOX IMVI melanoma
[21] = test system: M14 melanoma
[22] = test system: MALME-3M melanoma
[23] = test system: MDA-MB-231 breast
[24] = test system: MDA-MB-435
[25] = test system: MOLT-4 leukemia
[26] = test system: NCI-H226 lung
[27] = test system: NCI-H460 lung
[28] = test system: NCI-H522 lung
[29] = test system: NCI/ADR-RES ovarian
[30] = test system: OVCAR-3 ovarian
[31] = test system: OVCAR-4 ovarian
[32] = test system: OVCAR-5 ovarian
[33] = test system: OVCAR-8 ovarian
[34] = test system: PC-3 prostate
[35] = test system: RPMI-8226 leukemia
[36] = test system: RXF 393 renal
[37] = test system: SF-268 CNS
[38] = test system: SF-295 CNS
[39] = test system: SF-539 CNS
[40] = test system: SK-MEL-2 melanoma
[41] = test system: SK-MEL-28 melanoma
[42] = test system: SK-MEL-5 melanoma
[43] = test system: SK-OV-3 ovarian
[44] = test system: SN12C renal
[45] = test system: SNB-19 CNS
[46] = test system: SNB-75 CNS
[47] = test system: SR leukemia
[48] = test system: SW-620 colon
[49] = test system: U251 CNS
[50] = test system: UACC-257 melanoma
[51] = test system: UACC-62 melanoma
[52] = test system: UO-31 renal
[53] = test system: EKVX NSCLC
[54] = test system: IGROV1 ovarian
[55] = test system: MCF7 breast
[56] = test system: NCI-H23 lung
[57] = test system: TK-10 renal

SMILES: C/C(=C\c1ccc2ccccc2c1)[N+](=O)[O-]
- GI50 [1]: 1.99 µM
- TGI [1]: 3.83 µM
- GI50 [2]: 8.63 µM
- TGI [2]: 20.9 µM
- GI50 [3]: 4.58 µM
- TGI [3]: 19.3 µM
- GI50 [4]: 1.79 µM
- TGI [4]: 3.34 µM
- GI50 [5]: 2.24 µM
- TGI [5]: 4.57 µM
- GI50 [6]: 1.92 µM
- TGI [6]: 4.05 µM
- GI50 [7]: 1.89 µM
- TGI [7]: 5.65 µM
- GI50 [8]: 2.07 µM
- TGI [8]: 4.36 µM
- GI50 [9]: 1.91 µM
- TGI [9]: 3.54 µM
- GI50 [10]: 2.08 µM
- TGI [10]: 4.23 µM
- GI50 [11]: 2.19 µM
- TGI [11]: 5.58 µM
- GI50 [12]: 1.56 µM
- TGI [12]: 3.59 µM
- GI50 [13]: 2.03 µM
- TGI [13]: 5.49 µM
- GI50 [14]: 2.31 µM
- TGI [14]: 5.49 µM
- GI50 [15]: 1.96 µM
- TGI [15]: 5.06 µM
- GI50 [16]: 2.54 µM
- TGI [16]: 9.26 µM
- GI50 [17]: 2.18 µM
- TGI [17]: 4.46 µM
- GI50 [18]: 2.23 µM
- TGI [18]: 7.99 µM
- GI50 [19]: 2.11 µM
- TGI [19]: 4.19 µM
- GI50 [20]: 1.19 µM
- TGI [20]: 2.8 µM
- GI50 [21]: 2.2 µM
- TGI [21]: 4.94 µM
- GI50 [22]: 2.07 µM
- TGI [22]: 3.97 µM
- GI50 [23]: 2.02 µM
- TGI [23]: 3.92 µM
- GI50 [24]: 1.81 µM
- TGI [24]: 3.6 µM
- GI50 [25]: 2.61 µM
- TGI [25]: 6.48 µM
- GI50 [26]: 2.41 µM
- TGI [26]: 6.97 µM
- GI50 [27]: 1.88 µM
- TGI [27]: 3.83 µM
- GI50 [28]: 1.58 µM
- TGI [28]: 3 µM
- GI50 [29]: 7.75 µM
- TGI [29]: 23.7 µM
- GI50 [30]: 1.91 µM
- TGI [30]: 3.37 µM
- GI50 [31]: 1.65 µM
- TGI [31]: 3.01 µM
- GI50 [32]: 1.87 µM
- TGI [32]: 3.63 µM
- GI50 [33]: 1.73 µM
- TGI [33]: 3.17 µM
- GI50 [34]: 1.89 µM
- TGI [34]: 3.89 µM
- GI50 [35]: 1.57 µM
- TGI [35]: 4.39 µM
- GI50 [36]: 1.65 µM
- TGI [36]: 3.06 µM
- GI50 [37]: 1.91 µM
- TGI [37]: 3.72 µM
- GI50 [38]: 13.1 µM
- TGI [38]: 27.6 µM
- GI50 [39]: 1.64 µM
- TGI [39]: 3.07 µM
- GI50 [40]: 1.85 µM
- TGI [40]: 3.35 µM
- GI50 [41]: 1.95 µM
- TGI [41]: 4.06 µM
- GI50 [42]: 1.79 µM
- TGI [42]: 3.87 µM
- GI50 [43]: 14.8 µM
- TGI [43]: 28.7 µM
- GI50 [44]: 1.74 µM
- TGI [44]: 3.23 µM
- GI50 [45]: 6.15 µM
- TGI [45]: 19.7 µM
- GI50 [46]: 1.84 µM
- TGI [46]: 4.21 µM
- GI50 [47]: 0.409 µM
- TGI [47]: 2.56 µM
- GI50 [48]: 1.78 µM
- TGI [48]: 3.54 µM
- GI50 [49]: 1.77 µM
- TGI [49]: 3.6 µM
- GI50 [50]: 1.56 µM
- TGI [50]: 2.9 µM
- GI50 [51]: 1.76 µM
- TGI [51]: 3.26 µM
- GI50 [52]: 1.39 µM
- TGI [52]: 2.9 µM

SMILES: COc1ccc(CC2(O)C3CC4CCC2C4C3)cc1 (centres undefined)
- TGI [1]: > 100 µM
- TGI [3]: > 100 µM
- TGI [4]: > 100 µM
- TGI [5]: > 100 µM
- TGI [6]: > 100 µM
- TGI [7]: > 100 µM
- TGI [8]: > 100 µM
- TGI [53]: > 100 µM
- TGI [12]: > 100 µM
- TGI [13]: > 100 µM
- TGI [14]: > 100 µM
- TGI [15]: > 100 µM
- TGI [16]: > 100 µM
- TGI [17]: > 100 µM
- TGI [54]: > 100 µM
- TGI [18]: > 100 µM
- TGI [19]: > 100 µM
- TGI [20]: > 100 µM
- TGI [21]: > 100 µM
- TGI [22]: > 100 µM
- TGI [55]: > 100 µM
- TGI [24]: > 100 µM
- TGI [25]: > 100 µM
- TGI [26]: > 100 µM
- TGI [56]: > 100 µM
- TGI [27]: > 100 µM
- TGI [28]: > 100 µM
- TGI [29]: > 100 µM
- TGI [30]: > 100 µM
- TGI [31]: > 100 µM
- TGI [32]: > 100 µM
- TGI [33]: > 100 µM
- TGI [34]: > 100 µM
- TGI [35]: > 100 µM
- TGI [37]: > 100 µM
- TGI [38]: > 100 µM
- TGI [40]: > 100 µM
- TGI [41]: > 100 µM
- TGI [42]: > 100 µM
- TGI [43]: > 100 µM
- TGI [44]: > 100 µM
- TGI [45]: > 100 µM
- TGI [46]: > 100 µM
- TGI [47]: > 100 µM
- TGI [48]: > 100 µM
- TGI [57]: > 100 µM
- TGI [49]: > 100 µM
- TGI [50]: > 100 µM
- TGI [51]: > 100 µM
- TGI [52]: > 100 µM
